Test system: Mus musculus
Experiment: Antiinflammatory activity in CD1 mouse assessed as inhibition of croton oil-induced ear oedema at 0.3 umol/cm^2 after 6 hrs
Assay type: functional
Design: scale not given: the % may be the effect or the level left

In order of rising Activity:
1. Oc1ccc(O)cc1 [HYDROQUINONE]  4%
2. O=C(O)/C=C/c1ccc(O)c(O)c1 [CAFFEIC ACID]  6%
3. COc1ccccc1O [GUAIACOL]  10%
4. CC(=O)Nc1ccc(O)cc1 [ACETAMINOPHEN]  13%
5. O=C(O)c1ccccc1O [SALICYLIC ACID]  13%
6. COc1cc(/C=C/C(=O)O)ccc1O [FERULATE]  16%
7. COc1cc(C(=O)O)ccc1O [VANILLIC ACID]  20%
8. O=C1c2ccc(O)cc2C(=O)c2ccc(O)cc21 [ANTHRAFLAVICACID]  22%
9. O=C1C=C(O)C(=O)c2ccccc21 [LAWSONE]  23%
10. O=c1ccc2ccc(O)cc2o1 [UMBELLIFERONE]  23%
11. COC(=O)c1ccc(OC(=O)/C=C/c2ccc(OC/C=C(\C)CCC=C(C)C)c(OC)c2)c(OC)c1  29%
12. COc1cc(/C=C/C(=O)Oc2ccc3ccc(=O)oc3c2)ccc1OC/C=C(\C)CCC=C(C)C  38%
13. COC(=O)/C=C/c1ccc(OC(=O)/C=C/c2ccc(OC/C=C(\C)CCC=C(C)C)c(OC)c2)c(OC(=O)/C=C/c2ccc(OC/C=C(\C)CCC=C(C)C)c(OC)c2)c1  38%
14. COc1cc(/C=C/C(=O)O)ccc1OC/C=C(\C)CCC=C(C)C  41%
15. COC(=O)c1ccccc1OC(=O)/C=C/c1ccc(OC/C=C(\C)CCC=C(C)C)c(OC)c1  42%
16. COC(=O)/C=C/c1ccc(OC(=O)/C=C/c2ccc(OC/C=C(\C)CCC=C(C)C)c(OC)c2)c(OC)c1  43%
17. COc1cc(/C=C/C(=O)Oc2ccc3c(c2)C(=O)c2ccc(OC(=O)/C=C/c4ccc(OC/C=C(\C)CCC=C(C)C)c(OC)c4)cc2C3=O)ccc1OC/C=C(\C)CCC=C(C)C  43%
18. COc1cc(/C=C/C(=O)OC2=CC(=O)c3ccccc3C2=O)ccc1OC/C=C(\C)CCC=C(C)C  43%
19. O=C1C[C@@H](c2ccc(O)cc2)Oc2cc(O)cc(O)c21 [NARINGENIN]  43%
20. COc1cc(/C=C/C(=O)Oc2ccccc2OC)ccc1OC/C=C(\C)CCC=C(C)C  49%
21. COc1cc(/C=C/C(=O)Oc2ccc(NC(C)=O)cc2)ccc1OC/C=C(\C)CCC=C(C)C  51%
22. COc1cc(/C=C/C(=O)Oc2ccc(OC(=O)/C=C/c3ccc(OC/C=C(\C)CCC=C(C)C)c(OC)c3)cc2)ccc1OC/C=C(\C)CCC=C(C)C  57%
23. COc1ccc2c(c1)c(CC(=O)O)c(C)n2C(=O)c1ccc(Cl)cc1 [INDOMETHACIN]  62%
